Experimental data as given in US11820773B2, “Tricyclic compounds” (ALIGOS THERAPEUTICS, INC., priority 2020, dated 2023).

system: HBV; test: HBV-DNA antiviral assay using HepG2.117 cells (intracellular HBV DNA by qPCR); type: cell-based, genotype D HBV; conditions: HBV DNA inhibition, 3 days incubation, 2% DMSO
In short: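 Endpoints are intracellular HBV DNA by qPCR (interpolated from a gBlock standard curve) and ATP-based viability in duplicate plates. Doxycycline-free HepG2.117 Tet-off cells received compounds (9 concentrations, 4-fold steps, 2% DMSO) for 3 days. Inhibition normalised to DMSO wells; EC50/EC90/CC50 by curve fitting.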

| Structure (SMILES) | EC50 [nM] |
| --- | --- |
| Cc1nn[nH]c1-c1ccc(-n2c(=O)c3c(n4ncc(Cc5ccccc5)c24)CN(C(=O)c2ccc(Br)c(C(F)(F)F)c2)CC3)cc1 [Compound 35, 5-benzyl-12-[4-bromo-3-(trifluoromethyl)benzoyl]-7-[4-(4-methyl-1H-triazol-5-yl)phenyl]-2,3,7,12-tetrazatricyclo[7.4.0.0^2,6]trideca-1(9),3,5-trien-8-one] | < 50 |
| CC(C)Cc1cnn2c3c(c(=O)n(-c4ccc(-c5nncn5C)cc4)c12)C[C@@H](C)N(C(=O)c1ccc(Br)c(Cl)c1)C3 [Compound 60a, (11R)-12-(4-bromo-3-chlorobenzoyl)-11-methyl-7-[4-(4-methyl-1,2,4-triazol-3-yl)phenyl]-5-(2-methylpropyl)-2,3,7,12-tetraazatricyclo[7.4.0.0^{2,6}]trideca-1(9),3,5-trien-8-one] | < 50 |
| CC(C)Cc1cnn2c3c(c(=O)n(-c4ccc(-c5nncn5C)cc4)c12)C[C@H](C)N(C(=O)c1ccc(Br)c(Cl)c1)C3 [Compound 60b, (11S)-12-(4-bromo-3-chlorobenzoyl)-11-methyl-7-[4-(4-methyl-1,2,4-triazol-3-yl)phenyl]-5-(2-methylpropyl)-2,3,7,12-tetraazatricyclo[7.4.0.0^{2,6}]trideca-1(9),3,5-trien-8-one] | 50 to 500 |

same assay, conditions: Hepatitis B virus, 72 h, HBV DNA inhibition, 3 days incubation, 2% DMSO

| Structure (SMILES) | EC50 [nM] |
| --- | --- |
| CN1Cc2cc(-n3c(=O)c4c(n5ncc(Cc6ccccc6)c35)CN(C(=O)c3ccc(Br)c(Cl)c3)CC4)ccc2C1=O [Compound 15, 5-benzyl-12-(4-bromo-3-chloro-benzoyl)-7-(2-methyl-1-oxo-isoindolin-5-yl)-2,3,7,12-tetrazatricyclo[7.4.0.0^2,6]trideca-1(9),3,5-trien-8-one] | < 50 |
| CNC(=O)c1ccc(-n2c(=O)c3c(n4ncc(CC5CCC5)c24)CN(C(=O)c2ccc(Br)c(C(F)(F)F)c2)CC3)cc1 [Compound 16, 4-[12-[4-bromo-3-(trifluoromethyl)benzoyl]-5-(cyclobutylmethyl)-8-oxo-2,3,7,12-tetrazatricyclo[7.4.0.0^2,6]trideca-1(9),3,5-trien-7-yl]-N-methyl-benzamide] | < 50 |
| CNC(=O)c1ccc(-n2c(=O)c3c(n4ncc(CC5CCOC5)c24)CN(C(=O)c2ccc(Br)c(Cl)c2)CC3)cc1 (stereo not drawn) [Compound 17, 4-[12-(4-bromo-3-chloro-benzoyl)-8-oxo-5-(tetrahydrofuran-3-ylmethyl)-2,3,7,12-tetrazatricyclo[7.4.0.0^2,6]trideca-1(9),3,5-trien-7-yl]-N-methyl-benzamide] | < 50 |
| CNC(=O)c1ccc(-n2c(=O)c3c(n4ncc(Cc5ccsc5)c24)CN(C(=O)c2ccc(Br)c(Cl)c2)CC3)cc1 [Compound 18, 4-[12-(4-bromo-3-chloro-benzoyl)-8-oxo-5-(3-thienylmethyl)-2,3,7,12-tetrazatricyclo[7.4.0.0^2,6]trideca-1(9),3,5-trien-7-yl]-N-methyl-benzamide] | < 50 |
| CNC(=O)c1ccc(-n2c(=O)c3c(n4ncc(CC5CC(F)(F)C5)c24)CN(C(=O)c2ccc(Br)c(Cl)c2)CC3)cc1 [Compound 19, 4-[12-(4-bromo-3-chloro-benzoyl)-5-[(3,3-difluorocyclobutyl)methyl]-8-oxo-2,3,7,12-tetrazatricyclo[7.4.0.0^2,6]trideca-1(9),3,5-trien-7-yl]-N-methyl-benzamide] | 50 to 500 |
| CNC(=O)c1ccc(-n2c(=O)c3c(n4ncc(Cc5ccsc5)c24)CN(C(=O)c2ccc(Br)c(C(F)(F)F)c2)CC3)cc1 [Compound 20, 4-[12-[4-bromo-3-(trifluoromethyl)benzoyl]-8-oxo-5-(3-thienylmethyl)-2,3,7,12-tetrazatricyclo[7.4.0.0^2,6]trideca-1(9),3,5-trien-7-yl]-N-methyl-benzamide] | < 50 |
| CNc1nnc2cc(-n3c(=O)c4c(n5ncc(Cc6ccccc6)c35)CN(C(=O)c3ccc(Br)c(Cl)c3)CC4)ccn12 [Compound 23, 5-benzyl-12-(4-bromo-3-chloro-benzoyl)-7-[3-(methylamino)-[1,2,4]triazolo[4,3-a]pyridin-7-yl]-2,3,7,12-tetrazatricyclo[7.4.0.0^2,6]trideca-1(9),3,5-trien-8-one] | < 50 |
| CNC(=O)c1ccc(-n2c(=O)c3c(n4ncc(CC5CC5)c24)CN(C(=O)c2ccc(Br)c(C(F)(F)F)c2)CC3)cc1 [Compound 24, 4-[12-[4-bromo-3-(trifluoromethyl)benzoyl]-5-(cyclopropylmethyl)-8-oxo-2,3,7,12-tetrazatricyclo[7.4.0.0^2,6]trideca-1(9),3,5-trien-7-yl]-N-methyl-benzamide] | < 50 |
| Cn1cnnc1-c1ccc(-n2c(=O)c3c(n4ncc(Cc5ccccc5)c24)CN(C(=O)c2ccc(Br)c(C(F)(F)F)c2)CC3)cc1 [Compound 25, 5-benzyl-12-[4-bromo-3-(trifluoromethyl)benzoyl]-7-[4-(4-methyl-1,2,4-triazol-3-yl)phenyl]-2,3,7,12-tetrazatricyclo[7.4.0.0^2,6]trideca-1(9),3,5-trien-8-one] | < 50 |
| CNc1n[nH]c2cc(-n3c(=O)c4c(n5ncc(Cc6ccccc6)c35)CN(C(=O)c3ccc(Br)c(C(F)(F)F)c3)CC4)ccc12 [Compound 26, 5-benzyl-12-[4-bromo-3-(trifluoromethyl)benzoyl]-7-[3-(methylamino)-1H-indazol-6-yl]-2,3,7,12-tetrazatricyclo[7.4.0.0^2,6]trideca-1(9),3,5-trien-8-one] | < 50 |
| CNc1n[nH]c2cc(-n3c(=O)c4c(n5ncc(CC6CC6)c35)CN(C(=O)c3ccc(Br)c(Cl)c3)CC4)ccc12 [Compound 27, 12-(4-bromo-3-chloro-benzoyl)-5-(cyclopropylmethyl)-7-[3-(methylamino)-1H-indazol-6-yl]-2,3,7,12-tetrazatricyclo[7.4.0.0^2,6]trideca-1(9),3,5-trien-8-one] | < 50 |
| CNc1n[nH]c2cc(-n3c(=O)c4c(n5ncc(CC6CC6)c35)CN(C(=O)c3ccc(Br)c(C(F)(F)F)c3)CC4)ccc12 [Compound 28, 12-[4-bromo-3-(trifluoromethyl)benzoyl]-5-(cyclopropylmethyl)-7-[3-(methylamino)-1H-indazol-6-yl]-2,3,7,12-tetrazatricyclo[7.4.0.0^2,6]trideca-1(9),3,5-trien-8-one] | < 50 |
| CNC(=O)c1cc(-n2c(=O)c3c(n4ncc(Cc5ccccc5)c24)CN(C(=O)c2ccc(Br)c(C(F)(F)F)c2)CC3)nn1C [Compound 29, 5-[5-benzyl-12-[4-bromo-3-(trifluoromethyl)benzoyl]-8-oxo-2,3,7,12-tetrazatricyclo[7.4.0.0^2,6]trideca-1(9),3,5-trien-7-yl]-N,2-dimethyl-pyrazole-3-carboxamide] | < 50 |
| CNc1nnc2cc(-n3c(=O)c4c(n5ncc(Cc6ccccc6)c35)CN(C(=O)c3ccc(Br)c(C(F)(F)F)c3)CC4)ccn12 [Compound 30, 5-benzyl-12-[4-bromo-3-(trifluoromethyl)benzoyl]-7-[3-(methylamino)-[1,2,4]triazolo[4,3-a]pyridin-7-yl]-2,3,7,12-tetrazatricyclo[7.4.0.0^2,6]trideca-1(9),3,5-trien-8-one] | < 50 |
| Cc1nnc(-c2ccc(-n3c(=O)c4c(n5ncc(Cc6ccccc6)c35)CN(C(=O)c3ccc(Br)c(Cl)c3)CC4)cc2)n1C [Compound 31, 5-benzyl-12-(4-bromo-3-chloro-benzoyl)-7-[4-(4,5-dimethyl-1,2,4-triazol-3-yl)phenyl]-2,3,7,12-tetrazatricyclo[7.4.0.0^2,6]trideca-1(9),3,5-trien-8-one] | < 50 |
| Cc1nnc(-c2ccc(-n3c(=O)c4c(n5ncc(Cc6ccccc6)c35)CN(C(=O)c3ccc(Br)c(C(F)(F)F)c3)CC4)cc2)n1C [Compound 32, 5-benzyl-12-[4-bromo-3-(trifluoromethyl)benzoyl]-7-[4-(4,5-dimethyl-1,2,4-triazol-3-yl)phenyl]-2,3,7,12-tetrazatricyclo[7.4.0.0^2,6]trideca-1(9),3,5-trien-8-one] | < 50 |
| Cn1cncc1-c1ccc(-n2c(=O)c3c(n4ncc(Cc5ccccc5)c24)CN(C(=O)c2ccc(Br)c(C(F)(F)F)c2)CC3)cc1 [Compound 33, 5-benzyl-12-[4-bromo-3-(trifluoromethyl)benzoyl]-7-[4-(3-methylimidazol-4-yl)phenyl]-2,3,7,12-tetrazatricyclo[7.4.0.0^2,6]trideca-1(9),3,5-trien-8-one] | < 50 |
| Cc1cnnn1-c1ccc(-n2c(=O)c3c(n4ncc(Cc5ccccc5)c24)CN(C(=O)c2ccc(Br)c(C(F)(F)F)c2)CC3)cc1 [Compound 34, 5-benzyl-12-[4-bromo-3-(trifluoromethyl)benzoyl]-7-[4-(5-methyltriazol-1-yl)phenyl]-2,3,7,12-tetrazatricyclo[7.4.0.0^2,6]trideca-1(9),3,5-trien-8-one] | < 50 |
| Cc1ncnn1-c1ccc(-n2c(=O)c3c(n4ncc(Cc5ccccc5)c24)CN(C(=O)c2ccc(Br)c(C(F)(F)F)c2)CC3)cc1 [Compound 36, 5-benzyl-12-[4-bromo-3-(trifluoromethyl)benzoyl]-7-[4-(5-methyl-1,2,4-triazol-1-yl)phenyl]-2,3,7,12-tetrazatricyclo[7.4.0.0^2,6]trideca-1(9),3,5-trien-8-one] | < 50 |
| C#CCc1cnn2c3c(c(=O)n(-c4ccc(C(=O)NC)cc4)c12)CCN(C(=O)c1ccc(Br)c(C(F)(F)F)c1)C3 [Compound 42, 4-[12-[4-bromo-3-(trifluoromethyl)benzoyl]-8-oxo-5-prop-2-ynyl-2,3,7,12-tetrazatricyclo[7.4.0.0^2,6]trideca-1(9),3,5-trien-7-yl]-N-methyl-benzamide] | < 50 |
| C[C@@H]1Cc2c(n3ncc(Cc4ccccc4)c3n(-c3ccc(-n4nnnc4C(F)(F)F)cc3)c2=O)CN1C(=O)c1ccc(Br)c(C(F)(F)F)c1 [Compound 87, 5-benzyl-12-[4-bromo-3-(trifluoromethyl)benzoyl]-11-methyl-7-[4-[5-(trifluoromethyl)tetrazol-1-yl]phenyl]-2,3,7,12-tetrazatricyclo[7.4.0.0^2,6]trideca-1(9),3,5-trien-8-one] | 50 to 500 |
